From ChEMBL document CHEMBL3217622, “Design of 7-amino-6-chloro-3H-imidazo[4,5-b]pyridine scaffold from 5-chloro-2,4-diaminopyrimidine pharmacophore: identification of potent inhibitors of anaplastic lymphoma kinase” (Medchemcomm, 2012)

Assays:
[1] = molecular target: Insulin receptor (Homo sapiens, UniProt P06213); test: Inhibition of insulin receptor kinase (unknown origin)
[2] = (§1) Cmax in rat at 5 mg/kg, po; assay type: ADME, organism-based; parameters: dose 5 mg/kg, route oral; conditions: in vivo
[3] = system: Liver microsome; test: Metabolic stability in human liver microsomes assessed as GSH conjugation by LC/MS analysis; assay type: ADME
[4] = system: Rattus norvegicus; test: Half life in rat at 1 mg/kg, iv; assay type: ADME, organism-based; parameters: dose 1 mg/kg, route intravenous; conditions: in vivo
[5] = system: Liver microsome; test: Bioactivation in human liver microsomes in presence of NADPH
[6] = system: Rattus norvegicus; test: Volume of distribution in rat at 1 mg/kg, iv; assay type: ADME, organism-based; parameters: dose 1 mg/kg, route intravenous; conditions: in vivo
[7] = (§2) AUC (0 to infinity) in rat at 5 mg/kg, po; assay type: ADME, organism-based, Plasma; parameters: dose 5 mg/kg, route oral, time infinity; conditions: plasma
[8] = Oral bioavailability in rat at 5 mg/kg; assay type: ADME, organism-based; conditions: in vivo
[9] = AUC (0 to infinity) in rat at 1 mg/kg, iv; assay type: ADME, organism-based; parameters: dose 1 mg/kg, route intravenous, time infinity; conditions: plasma
[10] = molecular target: Voltage-gated inwardly rectifying potassium channel KCNH2 (Homo sapiens, UniProt Q12809); test: Inhibition of human ERG by automated patch-clamp assay
[11] = Apparent permeability of the compound from apical to basolateral side in human Caco2 cells by absorption system analysis; conditions: Caco-2
[12] = molecular target: Cytochrome P450 2C19 (Homo sapiens, UniProt P33261); test: Inhibition of CYP2C19 in human pooled liver microsomes using S-mephenytoin as substrate by LC/MS/MS analysis
Cytochrome P450 2C19, sequence (P33261 whole entry): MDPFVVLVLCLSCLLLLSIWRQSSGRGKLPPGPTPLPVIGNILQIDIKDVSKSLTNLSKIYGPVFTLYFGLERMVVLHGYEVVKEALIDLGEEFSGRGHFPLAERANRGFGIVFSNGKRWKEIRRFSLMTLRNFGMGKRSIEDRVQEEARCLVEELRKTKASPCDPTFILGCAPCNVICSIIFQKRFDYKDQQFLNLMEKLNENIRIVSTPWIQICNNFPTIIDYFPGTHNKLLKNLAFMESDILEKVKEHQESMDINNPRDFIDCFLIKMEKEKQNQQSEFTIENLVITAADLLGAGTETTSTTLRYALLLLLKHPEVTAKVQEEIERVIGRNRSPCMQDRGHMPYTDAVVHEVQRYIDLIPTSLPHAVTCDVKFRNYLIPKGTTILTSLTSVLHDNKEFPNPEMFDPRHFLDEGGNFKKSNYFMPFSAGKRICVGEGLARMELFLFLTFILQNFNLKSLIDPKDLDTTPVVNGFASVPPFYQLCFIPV

[13] = molecular target: T1, Cytochrome P450 3A4 (Homo sapiens, UniProt P08684); test: Inhibition of CYP3A4 in human pooled liver microsomes using midazolam as substrate by LC/MS/MS analysis
T1 sequence (P08684 whole entry): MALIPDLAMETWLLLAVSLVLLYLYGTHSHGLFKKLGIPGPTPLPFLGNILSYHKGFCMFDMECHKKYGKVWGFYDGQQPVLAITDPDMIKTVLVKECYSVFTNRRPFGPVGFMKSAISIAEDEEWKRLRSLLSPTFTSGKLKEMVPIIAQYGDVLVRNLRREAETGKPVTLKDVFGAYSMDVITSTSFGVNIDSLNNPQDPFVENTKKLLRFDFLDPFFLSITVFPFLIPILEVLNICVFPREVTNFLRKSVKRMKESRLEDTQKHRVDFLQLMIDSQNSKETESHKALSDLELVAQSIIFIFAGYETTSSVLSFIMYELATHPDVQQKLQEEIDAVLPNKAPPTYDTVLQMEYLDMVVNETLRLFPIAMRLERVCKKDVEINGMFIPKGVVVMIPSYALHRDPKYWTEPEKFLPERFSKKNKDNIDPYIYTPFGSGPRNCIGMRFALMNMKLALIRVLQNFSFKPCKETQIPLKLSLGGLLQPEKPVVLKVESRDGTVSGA

[14] = molecular target: T1, Cytochrome P450 3A4; test: Inhibition of CYP3A4 in human pooled liver microsomes using testosterone as substrate by LC/MS/MS analysis
[15] = molecular target: Cytochrome P450 2D6 (Homo sapiens, UniProt P10635); test: Inhibition of CYP2D6 in human pooled liver microsomes using dextromethorphan as substrate by LC/MS/MS analysis
Cytochrome P450 2D6, sequence (P10635 whole entry): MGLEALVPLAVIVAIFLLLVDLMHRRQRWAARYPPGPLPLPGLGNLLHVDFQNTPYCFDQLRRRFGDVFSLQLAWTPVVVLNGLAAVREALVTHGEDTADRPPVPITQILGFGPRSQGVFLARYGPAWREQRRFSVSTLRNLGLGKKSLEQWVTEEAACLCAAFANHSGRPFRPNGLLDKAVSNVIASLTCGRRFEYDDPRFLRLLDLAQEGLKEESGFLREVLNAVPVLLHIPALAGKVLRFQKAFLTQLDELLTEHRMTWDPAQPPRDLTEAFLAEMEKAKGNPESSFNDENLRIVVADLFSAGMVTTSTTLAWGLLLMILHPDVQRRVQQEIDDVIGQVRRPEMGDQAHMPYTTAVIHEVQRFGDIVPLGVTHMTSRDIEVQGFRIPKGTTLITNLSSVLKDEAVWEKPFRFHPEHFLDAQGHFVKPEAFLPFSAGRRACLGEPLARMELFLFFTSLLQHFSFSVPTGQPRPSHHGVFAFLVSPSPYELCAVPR

[16] = molecular target: T2, Cytochrome P450 1A2 (Homo sapiens, UniProt P05177); test: Inhibition of CYP1A2 in human pooled liver microsomes using phenacetin as substrate by LC/MS/MS analysis
T2 sequence (P05177 whole entry): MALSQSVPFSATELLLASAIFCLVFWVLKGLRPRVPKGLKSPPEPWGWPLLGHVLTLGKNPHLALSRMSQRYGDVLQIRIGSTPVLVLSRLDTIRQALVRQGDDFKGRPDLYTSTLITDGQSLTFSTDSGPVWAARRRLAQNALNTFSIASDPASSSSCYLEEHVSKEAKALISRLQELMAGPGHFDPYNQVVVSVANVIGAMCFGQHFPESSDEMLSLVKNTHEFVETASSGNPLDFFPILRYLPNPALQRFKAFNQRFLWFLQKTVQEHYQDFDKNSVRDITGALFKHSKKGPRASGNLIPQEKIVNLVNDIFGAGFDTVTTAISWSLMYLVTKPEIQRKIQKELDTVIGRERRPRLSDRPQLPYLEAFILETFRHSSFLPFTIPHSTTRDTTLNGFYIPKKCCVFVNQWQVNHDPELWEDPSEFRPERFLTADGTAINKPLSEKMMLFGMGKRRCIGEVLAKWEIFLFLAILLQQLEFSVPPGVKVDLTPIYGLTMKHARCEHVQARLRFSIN

[17] = molecular target: Cytochrome P450 2C9 (Homo sapiens, UniProt P11712); test: Inhibition of CYP2C9 in human pooled liver microsomes using diclofenac as substrate by LC/MS/MS analysis
Cytochrome P450 2C9, sequence (P11712 whole entry): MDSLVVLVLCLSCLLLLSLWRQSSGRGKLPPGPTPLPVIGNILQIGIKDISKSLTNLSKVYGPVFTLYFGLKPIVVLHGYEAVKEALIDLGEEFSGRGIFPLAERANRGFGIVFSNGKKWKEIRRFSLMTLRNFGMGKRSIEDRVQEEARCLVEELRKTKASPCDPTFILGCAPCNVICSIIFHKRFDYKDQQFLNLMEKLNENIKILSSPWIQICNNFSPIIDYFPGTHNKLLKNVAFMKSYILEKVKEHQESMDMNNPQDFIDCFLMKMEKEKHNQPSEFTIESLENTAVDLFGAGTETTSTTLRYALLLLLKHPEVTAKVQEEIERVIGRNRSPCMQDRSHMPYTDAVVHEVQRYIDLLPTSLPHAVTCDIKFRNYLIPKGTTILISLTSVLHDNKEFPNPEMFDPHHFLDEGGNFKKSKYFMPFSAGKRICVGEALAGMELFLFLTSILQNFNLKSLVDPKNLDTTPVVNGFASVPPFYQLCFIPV

[18] = system: Rattus norvegicus; test: as §1; assay type: ADME, organism-based; parameters: dose 5 mg/kg, route oral; conditions: in vivo, BLD = below limit of detection
[19] = system: Rattus norvegicus; test: as §2; assay type: ADME, organism-based, Plasma; parameters: dose 5 mg/kg, route oral, time infinity; conditions: in vivo, BLD = below limit of detection
[20] = molecular target: ALK tyrosine kinase receptor (Homo sapiens, UniProt Q9UM73); test: Inhibition of ALK (unknown origin)
ALK tyrosine kinase receptor, sequence (Q9UM73 whole entry): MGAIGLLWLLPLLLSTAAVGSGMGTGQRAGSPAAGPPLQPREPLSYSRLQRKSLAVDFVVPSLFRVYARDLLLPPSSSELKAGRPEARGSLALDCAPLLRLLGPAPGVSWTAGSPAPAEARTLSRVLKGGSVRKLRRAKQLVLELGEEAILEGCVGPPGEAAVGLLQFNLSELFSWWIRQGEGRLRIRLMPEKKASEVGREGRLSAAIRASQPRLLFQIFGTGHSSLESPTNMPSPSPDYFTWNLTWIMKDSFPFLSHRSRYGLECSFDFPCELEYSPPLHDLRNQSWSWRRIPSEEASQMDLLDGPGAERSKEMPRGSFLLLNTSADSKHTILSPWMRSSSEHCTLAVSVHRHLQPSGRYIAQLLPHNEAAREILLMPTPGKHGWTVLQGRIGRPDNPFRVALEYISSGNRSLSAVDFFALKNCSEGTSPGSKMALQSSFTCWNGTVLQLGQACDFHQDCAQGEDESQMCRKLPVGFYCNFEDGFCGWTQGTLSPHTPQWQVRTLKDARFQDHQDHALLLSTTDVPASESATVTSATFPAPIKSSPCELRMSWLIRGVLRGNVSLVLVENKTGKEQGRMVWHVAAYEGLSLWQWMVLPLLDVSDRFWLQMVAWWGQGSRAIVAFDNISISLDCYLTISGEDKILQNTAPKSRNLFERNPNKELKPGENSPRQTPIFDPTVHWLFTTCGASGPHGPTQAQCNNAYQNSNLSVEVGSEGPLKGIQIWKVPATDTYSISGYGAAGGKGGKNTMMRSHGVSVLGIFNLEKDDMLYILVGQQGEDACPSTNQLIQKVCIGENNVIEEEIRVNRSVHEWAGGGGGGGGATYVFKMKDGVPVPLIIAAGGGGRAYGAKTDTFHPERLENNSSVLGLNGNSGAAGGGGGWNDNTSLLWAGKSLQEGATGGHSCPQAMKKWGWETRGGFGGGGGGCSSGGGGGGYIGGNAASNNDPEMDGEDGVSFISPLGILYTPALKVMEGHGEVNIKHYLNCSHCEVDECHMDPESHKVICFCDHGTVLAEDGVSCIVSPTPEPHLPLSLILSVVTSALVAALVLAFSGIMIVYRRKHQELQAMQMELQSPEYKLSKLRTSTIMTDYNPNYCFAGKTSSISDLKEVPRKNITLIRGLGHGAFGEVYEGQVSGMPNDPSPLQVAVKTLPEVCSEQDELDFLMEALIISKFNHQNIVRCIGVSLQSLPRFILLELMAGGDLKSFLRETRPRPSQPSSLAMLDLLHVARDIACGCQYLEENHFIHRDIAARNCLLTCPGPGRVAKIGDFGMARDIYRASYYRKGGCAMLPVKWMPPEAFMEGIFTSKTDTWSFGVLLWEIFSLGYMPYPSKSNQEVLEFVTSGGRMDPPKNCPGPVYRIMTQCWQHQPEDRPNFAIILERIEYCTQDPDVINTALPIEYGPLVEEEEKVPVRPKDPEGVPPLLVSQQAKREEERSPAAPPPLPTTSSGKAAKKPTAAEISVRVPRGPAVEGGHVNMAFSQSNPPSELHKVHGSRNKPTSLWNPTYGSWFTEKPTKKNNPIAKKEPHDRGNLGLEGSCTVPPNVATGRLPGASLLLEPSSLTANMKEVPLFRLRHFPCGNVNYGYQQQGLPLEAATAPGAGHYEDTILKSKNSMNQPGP

Insulin receptor, sequence (P06213 28-758 limits assumed): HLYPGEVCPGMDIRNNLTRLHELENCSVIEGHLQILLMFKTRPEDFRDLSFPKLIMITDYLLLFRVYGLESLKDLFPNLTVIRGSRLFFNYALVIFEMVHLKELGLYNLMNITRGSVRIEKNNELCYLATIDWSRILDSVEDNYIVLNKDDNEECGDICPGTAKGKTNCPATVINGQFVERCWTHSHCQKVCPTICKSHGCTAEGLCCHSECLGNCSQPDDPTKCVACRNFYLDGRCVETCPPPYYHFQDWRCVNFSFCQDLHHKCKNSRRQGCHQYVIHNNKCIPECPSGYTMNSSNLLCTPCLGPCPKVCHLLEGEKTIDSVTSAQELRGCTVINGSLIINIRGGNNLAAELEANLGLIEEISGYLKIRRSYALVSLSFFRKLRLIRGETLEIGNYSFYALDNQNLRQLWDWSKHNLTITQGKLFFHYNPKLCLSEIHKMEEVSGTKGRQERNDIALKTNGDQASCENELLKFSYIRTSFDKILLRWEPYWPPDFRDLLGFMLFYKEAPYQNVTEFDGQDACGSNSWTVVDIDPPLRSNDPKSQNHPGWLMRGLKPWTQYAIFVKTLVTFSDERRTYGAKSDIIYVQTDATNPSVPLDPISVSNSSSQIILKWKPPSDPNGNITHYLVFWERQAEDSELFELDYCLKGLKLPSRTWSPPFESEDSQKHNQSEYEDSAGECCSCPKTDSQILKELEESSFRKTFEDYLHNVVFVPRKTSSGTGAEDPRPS
Insulin receptor, sequence (P06213 763-1382 limits assumed): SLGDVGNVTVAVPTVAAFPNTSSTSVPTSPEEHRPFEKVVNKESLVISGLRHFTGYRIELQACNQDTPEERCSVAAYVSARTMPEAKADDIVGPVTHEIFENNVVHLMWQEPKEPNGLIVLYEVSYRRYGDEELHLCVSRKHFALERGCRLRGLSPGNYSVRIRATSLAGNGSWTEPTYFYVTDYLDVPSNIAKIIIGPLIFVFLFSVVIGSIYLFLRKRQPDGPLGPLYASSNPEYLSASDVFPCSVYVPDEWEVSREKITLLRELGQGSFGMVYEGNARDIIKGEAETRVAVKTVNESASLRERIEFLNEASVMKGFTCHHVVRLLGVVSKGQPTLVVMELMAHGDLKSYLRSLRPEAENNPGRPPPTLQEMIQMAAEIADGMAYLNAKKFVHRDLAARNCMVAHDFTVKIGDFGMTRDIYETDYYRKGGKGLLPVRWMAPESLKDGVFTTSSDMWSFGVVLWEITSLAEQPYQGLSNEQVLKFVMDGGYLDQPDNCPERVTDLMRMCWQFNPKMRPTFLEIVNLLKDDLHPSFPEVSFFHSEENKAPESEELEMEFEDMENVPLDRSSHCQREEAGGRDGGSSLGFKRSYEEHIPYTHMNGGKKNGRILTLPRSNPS

SMILES	Cmax [2] [ng/mL]	t1/2 [4] [h]	Vd [6] [L/kg]	AUC(0-inf) [7] [ng·h/mL]	bioavailability [8] [%]	AUC(0-inf) [9] [ng·h/mL]	IC50 [12] [µM]	IC50 [13] [µM]	IC50 [14] [µM]	IC50 [15] [µM]	IC50 [16] [µM]	IC50 [17] [µM]	further results
COc1cccc(-c2nc3c(N[C@H]4[C@@H](C(N)=O)[C@@H]5C=C[C@H]4C5)c(Cl)cnc3[nH]2)c1													IC50 [1]: > 3 µM
COc1cc(N2CCOCC2)ccc1-c1nc2c(N[C@H]3[C@@H](C(N)=O)[C@@H]4C=C[C@H]3C4)c(Cl)cnc2[nH]1	429	1.4	0.8	2580	21	2480							Stability [3]: Stable; Stability [5]: Stable
COc1cc(N2CCN(C)CC2)ccc1-c1nc2c(N[C@H]3[C@@H](C(N)=O)[C@@H]4C=C[C@H]3C4)c(Cl)cnc2[nH]1	26	1.4	5.3	148	7	416	> 30	13.7	8.5	> 30	> 30	> 30	IC50 [10]: > 10 µM; Papp A→B [11]: 5 ×10⁻⁶ cm/s
COc1cc(N2CCC(N3CCOCC3)CC2)ccc1-c1nc2c(N[C@H]3[C@@H](C(N)=O)[C@@H]4C=C[C@H]3C4)c(Cl)cnc2[nH]1	158	1.9	1.8	740	8	1750							
COc1cc(N2CCC(N3CCN(C)CC3)CC2)ccc1-c1nc2c(N[C@H]3[C@@H](C(N)=O)[C@@H]4C=C[C@H]3C4)c(Cl)cnc2[nH]1		2.5	3		0	1430	> 30	> 30	> 30	> 30	> 30	> 30	Cmax [18]: BLD; AUC [19]: BLD
COc1cc(CN2CCOCC2)ccc1-c1nc2c(N[C@H]3[C@@H](C(N)=O)[C@@H]4C=C[C@H]3C4)c(Cl)cnc2[nH]1	317	1.6	5.6	1730	76	451	> 30	> 30	> 30	> 30	> 30	> 30	Papp A→B [11]: 10.8 ×10⁻⁶ cm/s
COc1cc(CN2CCN(C)CC2)ccc1-c1nc2c(N[C@H]3[C@@H](C(N)=O)[C@@H]4C=C[C@H]3C4)c(Cl)cnc2[nH]1		1.1	1.6		0	1140							Cmax [18]: BLD; AUC [19]: BLD
NC(=O)[C@@H]1[C@H](Nc2ccnc3[nH]c(-c4ccc(N5CCOCC5)cc4)nc23)[C@H]2C=C[C@@H]1C2													IC50 [20]: > 10 µM
CN1CCN(c2ccc(-c3nc4c(N[C@H]5[C@@H](C(N)=O)[C@@H]6C=C[C@H]5C6)ccnc4[nH]3)cc2)CC1													IC50 [20]: > 3 µM
